Measurements reported in US20180193209A1, “A POLYMER PRODUCT AND PREPARATION THEROF” (SINGAPORE HEALTH SERVICES PTE LTD., priority 2015, published 2018).

Test system: Human dermal fibroblast cells
Assay: MTS-based cell viability assay on fiber mats
Details: 24 hours culture
Procedure: Human dermal fibroblast cells were cultured according to the procedures recited in Biomacromolecules, 2005, 6 (5), pp 2583-2589. Briefly, cells were cultured in DMEM medium (Gibco®) supplemented with 10% (v/v) fetal bovine serum, 50 U/ml penicillin and 50 μg/ml streptomycin in a humidified incubator at 37° C. and 5% CO2. All the cell culture reagents were obtained from Life Technologies Corporation (Singapore). For biocompatibility experiments, cells were seeded onto the coverslips precoated with scaffolds and placed at the bottom of the 12-well plates (Nunc®) at a density of 10×10^4 cells/well and allowed to grow for 24 hours before analysis. For the negative control well(s), nocodazole was added to a final concentration of 5 μg/mL in the culture medium.
Cell viability was determined using CellTier 96® Aqueous One solution cell proliferation assay kit according to the manufacturer's instruction (Promega Corporation, Madison, Wis.), and according to the procedures recited in Kim B J et al., Reinforced multifunctionalized nanofibrous scaffolds using mussel adhesive proteins, Angew Chem Int Ed Eng, 2012; 51:675-8. This assay evaluates mitochondrial function by measuring the ability of viable cells to reduce MTS ((3-(4,5-dimethylthiazol-2-yl)-5-(3-carboxymethoxyphenyl)-2-(4-sulfophenyl)-2H-tetrazolium)) into a quantifiable […] formazon product. […]

Which “effect on cell viability (MTS)” value does the source give for `COC(=O)Nc1nc2ccc(C(=O)c3cccs3)cc2[nH]1` [nocodazole] here?
The value was “significant cell death”.
